Measured values as given in patent EP0552418A1, “N-substituted-3-iodopropiolamide, production and use thereof” (TAKEDA CHEMICAL INDUSTRIES, LTD., priority 1992, dated 1993).

Key:
[1] = test system: wood rot fungi; test: Preserving activity for wood preservatives, overall statement for both wood rot fungi; assay type: cell-based, Tyromyces palustris, Coriolus versicolor; settings: statement in words on Table 2
Procedure: This test was conducted according to Specification No. 1 of Japan Wood Preserving Association, enacted in 1979, amended in 1989 and titled "Test methods of preserving activity for wood preservatives used in the coating, spraying and dipping treatment".
• ① Tyromyces palustris (Ber. et Curt.) Murr., FFPRI 0507 --"Ouzuratake" • ② Coriolus versicolor(L. ex Fr.) Quélet, FFPRI 1030 --"Kawaratake" These two fungi are classified as wood rot fungi.
The antimicrobial operation was performed with specifying types of fungi for corresponding type of trees. The combinations were as follows: Cedar----Tyromyces palustris ("Ouzuratake") Beech----Coriolus versicolor ("Kawaratake")
The test results were presented by the ratio of average weight loss of test specimens due to antimicrobial operation. The standard deviation and coefficient of variation were also determined. The ratio of weight loss for each test specimen was calculated by the following equation, and its average was also determined: The ratio of weight loss(%) = (W₃ - W₄ ) / W₃ × 100. Lower value of the ratio of weight loss corresponds to higher wood preserving activity. […]

[2] = test system: Aspergillus Niger, Penicillium funiculosum, Rhizopus javanicus, Aureobasidium pullulans, Gliocladium virens; test: Fungicide activity for wood fungicide, sum over the five fungi and damage value; assay type: cell-based; settings: for damage value (D = S₁ / S₀ × 100): relative to untreated specimens (100.0), lower = higher activity; for wood fungicide activity: statement in words on Table 3
Procedure: This test was conducted according to Specification No.2 of Japan Wood Preserving Association, enacted in 1979 and titled "Test methods of fungicide activity for wood fungicide".
• ① Aspergillus niger van Tieghem IFO 6341 = ATCC 6275 • ② Penicillium funiculosum Thom (formerly : Penicillium luteum Zukal) IFO 6345 = ATCC 9644 . • ③ Rhizopus javanicus Takeda (formerly : Rhizopus nigricans Ehrenberg S.N. 32) IFO 6354 • ④ Aureobasidium pullulans (de Bary) Arnaud IFO 6353 = IAM (H. Iizuka, F-24) • ⑤ Gliocladium virens Miller, Gidden & Fosteb IFO 6355 = ATCC 9645 (formerly : Trichoderma viride, T.I.)
The average rating (A) was determined for each type of fungi with the following equation: Average rating (A) = (a₁ + a₂ + a₃ + a₄ + a₅ + a₆ ) / 6 [formula] wherein a₁, a₂ ...a₆ : rating for each test specimen.
The damage value was determined with the following equation after determining the sum of average rating by adding each rating of test specimens for each concentration of fungicide solution: S = A₁ + A₂ + A₃ + A₄ + A₅ [formula] wherein A₁, A₂.., A₅: average rating for each type of fungi D = S₁ / S₀ × 100 [formula] wherein S₀ : S for untreated test specimens S₁ : S for specimens treated with certain concentration of fungicide solution
Both lower rating value and lower damage value correspond to higher wood fungicide activity. […]

SMILES: CC(C)(C)NC(=O)C#CI [Example 1, N-(tert-Butyl)-3-iodopropiolamide]
- wood preserving activity [1]: excellent wood preserving activity
- damage value (D = S₁ / S₀ × 100) ([2]; 0.5% xylene solution): 13.3
- wood fungicide activity [2]: excellent wood fungicide activity

SMILES: CCCCCCCCCCNC(=O)C#CI [Example 2, N-(n-Decyl)-3-iodopropiolamide]
- wood preserving activity [1]: excellent wood preserving activity
- damage value (D = S₁ / S₀ × 100) ([2]; 0.5% xylene solution): 62.2

SMILES: CCCCNC(=O)C#CI [Example 4, N-(n-Butyl)-3-iodopropiolamide]
- wood preserving activity [1]: excellent wood preserving activity
- wood fungicide activity [2]: excellent wood fungicide activity

SMILES: CCC(C)NC(=O)C#CI (stereo not drawn) [Example 5, N-(sec-Butyl)-3-iodopropiolamide]
- wood preserving activity [1]: excellent wood preserving activity
- damage value (D = S₁ / S₀ × 100) ([2]; 0.5% xylene solution): 28.9
- wood fungicide activity [2]: excellent wood fungicide activity

SMILES: CC(C)CNC(=O)C#CI [Example 6, N-Isobutyl-3-iodopropiolamide]
- wood preserving activity [1]: excellent wood preserving activity
- damage value (D = S₁ / S₀ × 100) ([2]; 0.5% xylene solution): 20.2
- wood fungicide activity [2]: excellent wood fungicide activity

SMILES: CCCCCNC(=O)C#CI [Example 7, N-(n-Pentyl)-3-iodopropiolamide]
- wood preserving activity [1]: excellent wood preserving activity
- damage value (D = S₁ / S₀ × 100) ([2]; 0.5% xylene solution): 34.4

SMILES: CCCCCCNC(=O)C#CI [Example 8, N-(n-Hexyl)-3-iodopropiolamide]
- wood preserving activity [1]: excellent wood preserving activity
- damage value (D = S₁ / S₀ × 100) ([2]; 0.5% xylene solution): 23.3
- wood fungicide activity [2]: excellent wood fungicide activity

SMILES: CCCCCCCCNC(=O)C#CI [Example 10, N-(n-Octyl)-3-iodopropiolamide]
- damage value (D = S₁ / S₀ × 100) ([2]; 0.5% xylene solution): 54.4

SMILES: CCCCCCCCCNC(=O)C#CI [Example 11, N-(n-Nonyl)-3-iodopropiolamide]
- damage value (D = S₁ / S₀ × 100) ([2]; 0.5% xylene solution): 82.2
- Sum (S = A₁ + A₂ + A₃ + A₄ + A₅) ([2]; 0.5% xylene solution, sum of average ratings of five fungi, untreated 15.0): 12.3
